Values of other authors, collected in patent US10478388B2, “Skin engaging shaving aid member comprising at least one thermally resilient sensate” (The Gillette Company, priority 2012, dated 2019).

What was measured:
[1] = concentration where the cooling effect could be clearly recognized
[2] = compared to menthol at 2 ppm

Compound	Cooling threshold [1]	Cooling as compared to menthol [2]
CC(C)[C@@H]1CC[C@@H](C)C[C@@H]1O [Example 1-neomenthol, 1-neomenthol]	about 3,000 ppb	
CC(C)[C@@H]1CC[C@@H](C)C[C@@H]1O [d-neomenthol]	about 25,000 ppb	
CC(C)[C@@H]1CC[C@@H](C)C[C@H]1C(=O)Nc1ccc(CC#N)cc1 [N-[4-(cyanomethyl)phenyl]-(1R,2S,5R)-2-isopropyl-5-methylcyclohexanecarboxamide]		about 10 ×
CC(C)[C@@H]1CC[C@@H](C)C[C@H]1O [L-menthol]	about 800 ppb	
